Measurements from PMC11584650, “An inhibitory segment within G-patch activators tunes Prp43-ATPase activity during ribosome assembly” (Nature Communications, 2024).

Assays:
[1] = target: T1, Prp43:Tma23^M (Saccharomyces cerevisiae, UniProt P53131); assay: pyruvate kinase/lactate dehydrogenase coupled NADH assay, Michaelis-Menten fit; format: biochemical; conditions: no RNA; 20 mM MgCl2, 50 mM Hepes pH 7.5, 200 mM KCl, room temperature, ATP up to 2.5 mM
T1 construct: 1:1 complex of Prp43 with the middle (I-patch containing) domain of Tma23, co-expressed in E. coli; with Protein TMA23
Excerpt: pyruvate kinase/lactate dehydrogenase coupled NADH assay, Michaelis-Menten fit on Prp43:Tma23^M | We obtained kinetic parameters for the ATPase activities of Prp43, Prp43:Tma23^M and Ppr43:Pxr1^M complexes

[2] = target: T2, Prp43:Pxr1^GM (Saccharomyces cerevisiae, UniProt P53131); assay: pyruvate kinase/lactate dehydrogenase coupled NADH assay, initial rate; format: biochemical; conditions: 2.5 mM ATP, no RNA; 20 mM MgCl2, 50 mM Hepes pH 7.5, 200 mM KCl, room temperature
T2 construct: full-length Prp43 with G-patch plus middle domain of Pxr1 (137 residues), co-expressed in E. coli; resolved Prp43 52-718 and Pxr1 122-136; with Protein PXR1
T2 sequence (P53131 whole entry, the tested form may be a part): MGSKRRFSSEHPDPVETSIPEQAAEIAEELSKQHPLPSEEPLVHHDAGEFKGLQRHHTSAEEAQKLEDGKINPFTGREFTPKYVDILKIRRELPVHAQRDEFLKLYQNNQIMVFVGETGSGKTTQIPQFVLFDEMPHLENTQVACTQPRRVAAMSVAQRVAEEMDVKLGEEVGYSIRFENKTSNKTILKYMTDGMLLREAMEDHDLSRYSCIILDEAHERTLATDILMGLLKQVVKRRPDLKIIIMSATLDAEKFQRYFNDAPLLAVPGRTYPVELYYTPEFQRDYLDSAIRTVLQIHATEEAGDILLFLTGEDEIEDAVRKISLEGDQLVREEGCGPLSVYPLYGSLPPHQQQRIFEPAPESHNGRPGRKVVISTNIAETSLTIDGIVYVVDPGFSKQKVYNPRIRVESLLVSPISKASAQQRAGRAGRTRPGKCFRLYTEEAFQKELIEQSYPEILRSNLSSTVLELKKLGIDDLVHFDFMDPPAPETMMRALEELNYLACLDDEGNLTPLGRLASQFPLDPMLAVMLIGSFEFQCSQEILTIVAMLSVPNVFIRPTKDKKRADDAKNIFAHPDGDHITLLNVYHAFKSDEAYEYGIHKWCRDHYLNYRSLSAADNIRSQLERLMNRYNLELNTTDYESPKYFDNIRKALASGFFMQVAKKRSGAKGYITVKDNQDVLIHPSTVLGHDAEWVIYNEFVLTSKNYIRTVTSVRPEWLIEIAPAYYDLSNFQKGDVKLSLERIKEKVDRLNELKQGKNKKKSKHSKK
T2 sequence (P53335 1-137 partner): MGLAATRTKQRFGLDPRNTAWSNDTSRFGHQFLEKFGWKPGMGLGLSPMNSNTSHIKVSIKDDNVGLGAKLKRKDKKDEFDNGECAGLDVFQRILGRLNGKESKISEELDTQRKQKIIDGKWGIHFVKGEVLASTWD

T1 sequence (P53131 whole entry): as the sequence (P53131 whole entry, the tested form may be a part) above
T1 sequence (Q03525 whole entry partner): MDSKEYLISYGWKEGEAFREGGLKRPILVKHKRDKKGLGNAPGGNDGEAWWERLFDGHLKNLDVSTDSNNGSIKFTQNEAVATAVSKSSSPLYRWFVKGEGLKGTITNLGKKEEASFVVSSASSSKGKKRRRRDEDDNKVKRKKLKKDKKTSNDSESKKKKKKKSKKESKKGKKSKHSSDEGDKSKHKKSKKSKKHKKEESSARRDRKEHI

- Km [1]: 34 ± 4.56 µM
SMILES: Nc1ncnc2c1ncn2[C@@H]1O[C@H](COP(=O)(O)OP(=O)(O)OP(=O)(O)O)[C@@H](O)[C@H]1O [ATP]
- pyruvate kinase/lactate dehydrogenase coupled NADH assay, initial rate [2]: Pxr1^GM, Pxr1^GM-L33E, and Pxr1^M were co-expressed with Prp43
